Laboratory results as given in US12006301B1, “And synthesis of dual 5-HT1A and 5-HT7 receptor ligands” (Florida A&M University, priority 2021, dated 2024).
Structures can show the parent of a compound that is named as a salt. Where two headings read alike, the source gives them in different places.

Key:
[1] = animal models, rats, cited from earlier work
[2] = animal studies, cited from earlier work
[3] = molecular target: serotonin transporter (SERT) (Homo sapiens, UniProt P31645); experiment: NIMH-PDSP radioligand binding affinity, SERT; settings: read-out: SERT binding, 50% threshold inhibition (MT)
Description: Binding affinities reported in Tables 1-3 were conducted by the National Institute of Mental Health Psychoactive Drug Screening Program (NIMH-PDSP).

[4] = molecular target: T1, 5-HT2CR (Homo sapiens, UniProt P28335); experiment: NIMH-PDSP radioligand binding affinity, 5-HT2C; settings: for inhibition at 10 µM: read-out: 5-HT2C binding, 50% threshold inhibition (MT)
T1 sequence (P28335 33-458): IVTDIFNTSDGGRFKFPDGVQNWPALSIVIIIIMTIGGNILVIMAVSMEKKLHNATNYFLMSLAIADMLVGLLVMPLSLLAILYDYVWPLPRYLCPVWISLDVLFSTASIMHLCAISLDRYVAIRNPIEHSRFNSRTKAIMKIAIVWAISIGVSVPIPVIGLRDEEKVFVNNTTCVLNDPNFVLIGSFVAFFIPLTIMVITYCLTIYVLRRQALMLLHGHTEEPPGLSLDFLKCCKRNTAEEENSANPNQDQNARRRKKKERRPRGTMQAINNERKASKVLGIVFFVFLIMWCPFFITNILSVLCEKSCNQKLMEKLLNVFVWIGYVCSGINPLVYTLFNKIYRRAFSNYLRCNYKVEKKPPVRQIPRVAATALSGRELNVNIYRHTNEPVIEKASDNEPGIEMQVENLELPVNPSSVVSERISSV

[5] = molecular target: T2, D4R (Homo sapiens, UniProt P21917); experiment: NIMH-PDSP radioligand binding affinity, D4; settings: read-out: D4 binding, 50% threshold inhibition (MT)
T2 sequence (P21917 1-419): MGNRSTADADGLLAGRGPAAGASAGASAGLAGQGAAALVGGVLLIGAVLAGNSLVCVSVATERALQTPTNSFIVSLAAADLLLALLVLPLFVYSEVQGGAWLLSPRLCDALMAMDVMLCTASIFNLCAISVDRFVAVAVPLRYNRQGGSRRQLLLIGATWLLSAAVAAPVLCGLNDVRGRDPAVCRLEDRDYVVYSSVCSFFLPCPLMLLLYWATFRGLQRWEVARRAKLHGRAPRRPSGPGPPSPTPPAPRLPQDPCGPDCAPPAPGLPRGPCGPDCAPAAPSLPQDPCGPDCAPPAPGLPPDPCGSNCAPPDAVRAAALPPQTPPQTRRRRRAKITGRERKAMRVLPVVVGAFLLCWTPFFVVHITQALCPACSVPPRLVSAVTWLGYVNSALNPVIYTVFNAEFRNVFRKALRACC

[6] = molecular target: D2R (Homo sapiens, UniProt P14416); experiment: NIMH-PDSP radioligand binding affinity, D2; settings: for inhibition at 10 µM: read-out: D2 binding, 50% threshold inhibition (MT)
[7] = molecular target: D3R (Homo sapiens, UniProt P35462); experiment: NIMH-PDSP radioligand binding affinity, D3
[8] = molecular target: T3, 5-HT7AR (Homo sapiens, UniProt P34969); experiment: HEK-5-HT7A/cAMP adenylate cyclase functional assay, agonist effects; assay type: cell-based
T3 construct: expressed in transfected cells; host or cells: Human embryonic kidney (HEK) cells, transient transfection with PEI
T3 sequence (P34969 1-445 isoform P34969-2): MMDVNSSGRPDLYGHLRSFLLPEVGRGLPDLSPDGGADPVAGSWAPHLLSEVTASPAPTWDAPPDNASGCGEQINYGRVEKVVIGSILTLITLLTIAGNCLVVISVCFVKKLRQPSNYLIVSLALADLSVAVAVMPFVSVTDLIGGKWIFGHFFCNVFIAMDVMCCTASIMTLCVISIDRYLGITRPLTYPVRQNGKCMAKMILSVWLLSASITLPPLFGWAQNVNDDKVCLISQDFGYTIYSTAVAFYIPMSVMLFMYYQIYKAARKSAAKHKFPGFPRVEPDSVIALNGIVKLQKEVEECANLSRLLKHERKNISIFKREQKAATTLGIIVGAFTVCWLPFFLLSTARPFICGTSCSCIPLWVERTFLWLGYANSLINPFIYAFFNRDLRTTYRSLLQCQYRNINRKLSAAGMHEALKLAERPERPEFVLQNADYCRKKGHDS

Chain of D2R (P14416 whole entry): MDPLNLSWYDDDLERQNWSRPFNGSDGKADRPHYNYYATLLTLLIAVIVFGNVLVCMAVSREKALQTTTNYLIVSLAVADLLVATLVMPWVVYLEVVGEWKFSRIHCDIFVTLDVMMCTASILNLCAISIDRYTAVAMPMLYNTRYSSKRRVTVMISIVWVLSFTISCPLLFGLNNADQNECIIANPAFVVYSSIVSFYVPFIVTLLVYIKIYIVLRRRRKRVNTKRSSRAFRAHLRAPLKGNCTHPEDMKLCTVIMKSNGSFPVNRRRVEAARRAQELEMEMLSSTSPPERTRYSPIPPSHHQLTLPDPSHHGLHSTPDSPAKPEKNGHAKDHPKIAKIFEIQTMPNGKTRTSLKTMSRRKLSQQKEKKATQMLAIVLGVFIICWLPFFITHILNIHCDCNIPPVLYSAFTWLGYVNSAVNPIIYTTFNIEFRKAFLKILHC
Chain of serotonin transporter (SERT) (P31645 whole entry, species assumed): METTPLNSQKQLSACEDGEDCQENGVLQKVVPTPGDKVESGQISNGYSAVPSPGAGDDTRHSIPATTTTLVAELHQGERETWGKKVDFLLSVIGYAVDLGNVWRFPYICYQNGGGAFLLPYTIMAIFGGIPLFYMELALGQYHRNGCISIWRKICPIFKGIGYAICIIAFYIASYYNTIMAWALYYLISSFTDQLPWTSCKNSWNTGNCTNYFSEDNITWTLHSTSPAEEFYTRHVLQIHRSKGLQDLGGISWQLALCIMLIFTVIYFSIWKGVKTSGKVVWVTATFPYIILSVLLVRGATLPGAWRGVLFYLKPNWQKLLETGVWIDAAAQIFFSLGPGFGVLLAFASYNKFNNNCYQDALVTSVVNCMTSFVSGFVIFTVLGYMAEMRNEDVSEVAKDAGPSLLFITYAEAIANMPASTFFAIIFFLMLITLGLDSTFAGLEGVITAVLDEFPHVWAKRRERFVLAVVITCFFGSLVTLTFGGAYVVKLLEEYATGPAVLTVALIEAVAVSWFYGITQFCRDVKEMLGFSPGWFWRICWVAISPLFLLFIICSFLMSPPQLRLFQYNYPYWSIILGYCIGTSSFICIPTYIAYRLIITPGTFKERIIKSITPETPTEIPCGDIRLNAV
Chain of D3R (P35462 whole entry): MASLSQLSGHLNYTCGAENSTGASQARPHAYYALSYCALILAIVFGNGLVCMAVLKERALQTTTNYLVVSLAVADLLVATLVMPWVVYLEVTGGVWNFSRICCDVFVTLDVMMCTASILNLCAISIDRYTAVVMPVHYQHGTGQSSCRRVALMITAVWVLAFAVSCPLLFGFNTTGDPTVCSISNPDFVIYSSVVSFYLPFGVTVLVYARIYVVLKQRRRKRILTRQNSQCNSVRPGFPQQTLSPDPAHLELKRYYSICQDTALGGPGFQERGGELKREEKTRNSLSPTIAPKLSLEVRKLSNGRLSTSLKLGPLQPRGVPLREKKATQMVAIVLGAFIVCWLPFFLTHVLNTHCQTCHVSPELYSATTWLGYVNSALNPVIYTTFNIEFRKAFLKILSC

| SMILES | melting point [°C] | inhibition at 10 µM [3] [%] | further results |
| --- | --- | --- | --- |
| Clc1ccc2c(c1)CC(CCN1CCN(c3ccccn3)CC1)C2 (centres unmarked) (as salt: HCl) [Compound 16, 1-(2-(5-chloro-2,3-dihydro-1H-inden-2-yl)ethyl)-4-(pyridin-2-yl)piperazine] | 267 to 270 | – | – |
| O=C1c2ccc(Cl)cc2CC1CCCCN1CCN(c2ccccn2)CC1 (centres unmarked) (as salt: HCl) [Compound 20, 5-chloro-2-(4-(4-(pyridin-2-yl)piperazin-1-yl)butyl)-2,3-dihydro-1H-inden-1-one] | 233 to 234 | – | – |
| OC1c2ccc(F)cc2CC1CCN1CCN(c2ccccn2)CC1 (centres unmarked) (as salt: hydroiodid) [Compound 14, 5-Fluoro-2-[2-(4-pyridin-2-yl-piperazin-1-yl)-ethyl]-indan-1-ol] | 174 to 175 | – | – |
| CC(=O)Nc1ccc(C(=O)CCCN2CCN(c3ccccn3)CC2)cc1 (as salt: oxalate) [Compound 3, N-(4-(4-(4-(pyridin-2-yl)piperazin-1-yl)butanoyl)phenyl) acetamide oxalate] | 140 to 142 | – | – |
| O=C1CCc2cc(OCCCN3CCCN(c4ccccn4)CC3)ccc2N1 (as salt: oxalate) [Compound 10, 6-(3-(4-(pyridin-2-yl)-1,4-diazepan-1-yl)propoxy)-3,4-dihydroquinolin-2(1H)-one oxalate] | 190 to 192 | – | – |
| Fc1ccc(CCCCN2CCN(c3ccccn3)CC2)cc1 [Compound 2, 1-(4-(4-fluorophenyl)butyl)-4-(pyridin-2-yl)piperazine] | – | – | catalepsy / motoric side effects (in words) [1]: low propensity to cause catalepsy; catalepsy / motoric side effects (in words) ([1]; listed as SYA 16263): low propensity to cause motoric side effects; catalepsy / motoric side effects (in words) ([1]; listed as SYA16263): absence of catalepsy; antipsychotic-like activity (in words) ([2]; listed as SYA 16263): moderate antipsychotic-like activity; antipsychotic-like activity (in words) ([2]; listed as SYA16263): antipsychotic-like properties |
| CC(=O)Nc1ccc(C(=O)CCCN2CCN(c3ccccn3)CC2)cc1 [Compound 3, N-(4-(4-(4-(pyridin-2-yl)piperazin-1-yl)butanoyl)phenyl) acetamide oxalate] | – | < 50 | – |
| CC(=O)Nc1ccc(CCCCN2CCN(c3ccccn3)CC2)cc1 [Compound 4, N-(4-(4-(4-(pyridin-2-yl)piperazin-1-yl)butyl)phenyl)acetamide] | – | < 50 | – |
| Nc1ccc(C(=O)CCCN2CCN(c3ccccn3)CC2)cc1 [Compound 5, 1-(4-aminophenyl)-4-(4-(pyridin-2-yl)piperazin-1-yl)butan-1-one] | 203 to 204 | < 50 | – |
| Nc1ccc(CCCCN2CCN(c3ccccn3)CC2)cc1 [Compound 6, 4-(4-(4-(pyridin-2-yl)piperazin-1-yl)butyl)aniline] | – | < 50 | inhibition at 10 µM [4]: < 50% |
| O=C1CCc2cc(C(=O)CCCN3CCN(c4ccccn4)CC3)ccc2N1 [Compound 7, 6-(4-(4-(pyridin-2-yl)piperazin-1-yl)butanoyl)-3,4-dihydroquinolin-2(1H)-one] | 192 to 193 | < 50 | inhibition at 10 µM [4]: < 50% |
| O=C1CCc2cc(CCCCN3CCN(c4ccccn4)CC3)ccc2N1 [Compound 8, 6-(4-(4-(pyridin-2-yl)piperazin-1-yl)butyl)-3,4-dihydroquinolin-2(1H)-one] | 144 to 145 | – | – |
| O=C1CCc2cc(OCCCN3CCN(c4ccccn4)CC3)ccc2N1 [Compound 9, 6-(3-(4-(pyridin-2-yl)piperazin-1-yl)propoxy)-3,4-dihydroquinolin-2(1H)-one] | 154 to 155 | – | – |
| O=C1CCc2cc(OCCCN3CCCN(c4ccccn4)CC3)ccc2N1 [Compound 10, 6-(3-(4-(pyridin-2-yl)-1,4-diazepan-1-yl)propoxy)-3,4-dihydroquinolin-2(1H)-one oxalate] | – | – | inhibition at 10 µM [5]: < 50% |
| O=C1CCc2cc(OCCCN3CCN(c4ccccn4)CC3)ccc21 [Compound 11, 5-(3-(4-(pyridin-2-yl)piperazin-1-yl)propoxy)-2,3-dihydro-1H-inden-1-one] | 103 to 104 | < 50 | inhibition at 10 µM [6]: < 50% |
| O=C(CCCN1CCN(c2ccccn2)CC1)c1ccc2c(c1)CCC2 [Compound 12, 1-(2,3-Dihydro-1H-inden-5-yl)-4-(4-(pyridin-2-yl)piperazin-1-yl)butan-1-one] | 74 to 75 | < 50 | – |
| O=C1c2ccc(F)cc2CC1CCN1CCN(c2ccccn2)CC1 (centres unmarked) [Compound 13, 5-Fluoro-2-(2-(4-(pyridin-2-yl)piperazin-1-yl)ethyl)-2,3-dihydro-1H-inden-1-one] | – | < 50 | binding affinity at D2R (in words) [6]: complete loss of binding affinity; inhibition at 10 µM [6]: < 50%; 5-HT2C binding, 50% threshold inhibition (MT) ([4]; 10 µM): MT (key: MT = missed 50% threshold inhibition at 10 μM concentration) |
| OC1c2ccc(F)cc2CC1CCN1CCN(c2ccccn2)CC1 (centres unmarked) [Compound 14, 5-Fluoro-2-[2-(4-pyridin-2-yl-piperazin-1-yl)-ethyl]-indan-1-ol] | – | – | inhibition at 10 µM [4]: < 50% |
| O=C1c2ccc(Cl)cc2CC1CCN1CCN(c2ccccn2)CC1 (centres unmarked) [Compound 15, 5-chloro-2-(2-(4-(pyridin-2-yl)piperazin-1-yl)ethyl)-2,3-dihydro-1H-inden-1-one] | 132 to 135 | < 50 | binding affinity at D2R (in words) [6]: lost; inhibition at 10 µM [6]: < 50%; binding affinity at D3R (in words) [7]: lost; inhibition at 10 µM ([7]; read-out: D3 binding, 50% threshold inhibition (MT)): < 50% |
| Clc1ccc2c(c1)CC(CCN1CCN(c3ccccn3)CC1)C2 (centres unmarked) [Compound 16, 1-(2-(5-chloro-2,3-dihydro-1H-inden-2-yl)ethyl)-4-(pyridin-2-yl)piperazine] | – | < 50 | – |
| O=C1c2cc(Cl)ccc2CC1CCN1CCN(c2ccccn2)CC1 (centres unmarked) [Compound 17, 6-chloro-2-(2-(4-(pyridin-2-yl)piperazin-1-yl)ethyl)-2,3-dihydro-1H-inden-1-one] | – | < 50 | – |
| O=C1c2cc(Cl)c(Cl)cc2CC1CCN1CCN(c2ccccn2)CC1 (centres unmarked) [Compound 18, 5,6-Dichloro-2-(2-(4-(pyridin-2-yl)piperazin-1-yl)ethyl)-2,3-dihydro-1H-inden-1-one] | – | < 50 | – |
| O=C1c2ccc(Cl)cc2CC1CCCN1CCN(c2ccccn2)CC1 (centres unmarked) [Compound 19, 5-chloro-2-(3-(4-(pyridin-2-yl)piperazin-1-yl)propyl)-2,3-dihydro-1H-inden-1-one] | – | – | inhibition at 10 µM [6]: < 50% |
| NCCc1c[nH]c2ccc(O)cc12 [Serotonin] | – | – | agonist activity at 5-HT7AR (in words) [8]: showed agonist properties |
| O=C1c2ccc(Cl)cc2CC1CCCN1CCN(c2ccccn2)CC1 (centres unmarked) [drawing 43] | – | < 50 | – |
